The Ki is a measure of affinity in units of concentration, obtained from inhibition or displacement. A low value points to higher affinity. As a reminder, the solubility is the concentration that dissolves in the medium under given conditions.

SMILES strings stand for the structures.

Some targets named below: Carbonic anhydrase 9 (Homo sapiens, UniProt Q16790); Carbonic anhydrase 1 (Homo sapiens, UniProt P00915); Carbonic anhydrase 2 (Homo sapiens, UniProt P00918); Carbonic anhydrase 12 (Homo sapiens, UniProt O43570); Carbonic anhydrase 14 (Homo sapiens, UniProt Q9ULX7).
Data set [1] is described as follows: Solubility of the compound in water. It is filed as physicochemical.

Carbonic anhydrase 12, sequence (O43570 whole entry): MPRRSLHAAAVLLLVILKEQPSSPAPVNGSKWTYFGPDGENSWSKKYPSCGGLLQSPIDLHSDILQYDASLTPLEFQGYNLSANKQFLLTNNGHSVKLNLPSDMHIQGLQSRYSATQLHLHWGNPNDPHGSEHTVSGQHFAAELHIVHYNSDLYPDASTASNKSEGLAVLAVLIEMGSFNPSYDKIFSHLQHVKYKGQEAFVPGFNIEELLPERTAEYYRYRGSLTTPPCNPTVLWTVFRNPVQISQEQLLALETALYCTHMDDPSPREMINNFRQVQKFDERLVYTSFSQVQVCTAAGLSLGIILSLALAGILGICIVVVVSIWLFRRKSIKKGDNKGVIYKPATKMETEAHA
Carbonic anhydrase 1, sequence (P00915 whole entry): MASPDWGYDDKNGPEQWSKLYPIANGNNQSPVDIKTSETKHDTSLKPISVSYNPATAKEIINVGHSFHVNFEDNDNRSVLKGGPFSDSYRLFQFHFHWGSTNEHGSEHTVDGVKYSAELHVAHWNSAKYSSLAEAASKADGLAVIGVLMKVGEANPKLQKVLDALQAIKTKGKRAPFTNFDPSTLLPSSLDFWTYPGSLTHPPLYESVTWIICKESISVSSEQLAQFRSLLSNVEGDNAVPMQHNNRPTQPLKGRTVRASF
Carbonic anhydrase 14, sequence (Q9ULX7 whole entry): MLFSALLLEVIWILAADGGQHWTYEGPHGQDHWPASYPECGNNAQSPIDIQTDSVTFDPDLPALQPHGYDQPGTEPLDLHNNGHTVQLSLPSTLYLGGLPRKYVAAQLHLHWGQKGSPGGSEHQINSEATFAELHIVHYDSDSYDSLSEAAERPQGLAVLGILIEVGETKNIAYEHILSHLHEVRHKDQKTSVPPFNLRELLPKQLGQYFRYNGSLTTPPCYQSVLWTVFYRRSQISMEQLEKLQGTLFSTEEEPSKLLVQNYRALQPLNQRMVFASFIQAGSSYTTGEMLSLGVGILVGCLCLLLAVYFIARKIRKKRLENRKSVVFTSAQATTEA

As to `NS(=O)(=O)c1ccc(CCNC(=S)N[C@@H]2O[C@H](CO)[C@@H](O[C@@H]3O[C@H](CO)[C@H](O)[C@H](O)[C@H]3O)[C@H](O)[C@H]2O)cc1`, the Ki is 8.9 nM at Carbonic anhydrase 9; 100 nM at Carbonic anhydrase 1; 9 nM at Carbonic anhydrase 2; 13.5 nM at Carbonic anhydrase 12; 8.4 nM at Carbonic anhydrase 14. This compound gave a solubility in data set [1] greater than 20 mg/mL.

As to `NS(=O)(=O)c1ccc(CCNC(=S)N[C@@H]2O[C@H](CO)[C@@H](O[C@H]3O[C@H](CO)[C@@H](O)[C@H](O)[C@H]3O)[C@H](O)[C@H]2O)cc1`, the Ki on Carbonic anhydrase 9 is 2.1 nM; on Carbonic anhydrase 1, 4260 nM; on Carbonic anhydrase 2, 271 nM; on Carbonic anhydrase 12, 9.8 nM; at Carbonic anhydrase 14 it was 7.8 nM. The solubility in data set [1] was greater than 20 mg/mL.

Regarding `NS(=O)(=O)c1ccc(NC(=S)N[C@@H]2O[C@H](CO)[C@@H](O[C@@H]3O[C@H](CO)[C@H](O)[C@H](O)[C@H]3O)[C@H](O)[C@H]2O)cc1`, the Ki worked out at 258 nM on Carbonic anhydrase 9; 7980 nM on Carbonic anhydrase 1; 6.9 nM at Carbonic anhydrase 2; 81 nM on Carbonic anhydrase 12; 55 nM at Carbonic anhydrase 14. In data set [1], this compound had a solubility greater than 20 mg/mL.

For the compound `NS(=O)(=O)c1ccc(CCNC(=S)N[C@@H]2O[C@H](CO)[C@H](O)[C@H](O)[C@H]2O)cc1`, the Ki at Carbonic anhydrase 9 came out at 2.8 nM; at Carbonic anhydrase 1 it was 5790 nM; at Carbonic anhydrase 2, 9.3 nM; at Carbonic anhydrase 12 it was 10.2 nM; on Carbonic anhydrase 14, 108 nM. For the same compound, in data set [1], the solubility is greater than 20 mg/mL.

`NS(=O)(=O)c1ccc(CNC(=S)N[C@@H]2O[C@H](CO)[C@@H](O[C@@H]3O[C@H](CO)[C@H](O)[C@H](O)[C@H]3O)[C@H](O)[C@H]2O)cc1`: the Ki at Carbonic anhydrase 9 was 8.3 nM; at Carbonic anhydrase 1 it was 4060 nM; on Carbonic anhydrase 2, 105 nM; on Carbonic anhydrase 12 it was 7.9 nM; on Carbonic anhydrase 14, 44 nM. Further, in data set [1], the solubility is greater than 20 mg/mL.

For the compound `NS(=O)(=O)c1ccc(NC(=S)N[C@@H]2O[C@H](CO)[C@@H](O[C@H]3O[C@H](CO)[C@@H](O)[C@H](O)[C@H]3O)[C@H](O)[C@H]2O)cc1`, the Ki was found to be 8.4 nM on Carbonic anhydrase 9; 7920 nM at Carbonic anhydrase 1; 7.5 nM on Carbonic anhydrase 2; 300 nM at Carbonic anhydrase 12; 9.8 nM on Carbonic anhydrase 14. Moreover, the solubility in data set [1] was greater than 20 mg/mL.

For `NS(=O)(=O)c1ccc(NC(=S)N[C@@H]2O[C@H](CO)[C@@H](O)[C@H](O)[C@H]2O)cc1`, the Ki worked out at 282 nM at Carbonic anhydrase 9; 7680 nM on Carbonic anhydrase 1; 7 nM at Carbonic anhydrase 2; 8.2 nM on Carbonic anhydrase 12; 41 nM on Carbonic anhydrase 14. The solubility in data set [1] is greater than 20 mg/mL.

Turning to `NS(=O)(=O)c1ccc(CCNC(=S)N[C@@H]2O[C@H](CO)[C@@H](O)[C@H](O)[C@H]2O)cc1`, the Ki was 8.7 nM at Carbonic anhydrase 9; 9 nM at Carbonic anhydrase 1; 108 nM on Carbonic anhydrase 2; 9.7 nM at Carbonic anhydrase 12; 8 nM on Carbonic anhydrase 14. The compound further returned a solubility in data set [1] greater than 20 mg/mL.

`NS(=O)(=O)c1ccc(CNC(=S)N[C@@H]2O[C@H](CO)[C@@H](O[C@H]3O[C@H](CO)[C@@H](O)[C@H](O)[C@H]3O)[C@H](O)[C@H]2O)cc1`: the Ki at Carbonic anhydrase 9 worked out at 8.4 nM; at Carbonic anhydrase 1, 6300 nM; at Carbonic anhydrase 2, 376 nM; on Carbonic anhydrase 12 it was 12.5 nM; at Carbonic anhydrase 14, 8.5 nM. The solubility in data set [1] is greater than 20 mg/mL.

On to `NS(=O)(=O)c1ccc(CNC(=S)N[C@@H]2O[C@H](CO)[C@@H](O)[C@H](O)[C@H]2O)cc1`, for which the solubility in data set [1] was greater than 20 mg/mL. Also, the Ki on Carbonic anhydrase 1 was found to be 7500 nM; at Carbonic anhydrase 2 it was 377 nM; at Carbonic anhydrase 12 it was 8.2 nM; on Carbonic anhydrase 14, 16 nM.

As to `NS(=O)(=O)c1ccc(CNC(=S)N[C@@H]2O[C@H](CO)[C@H](O)[C@H](O)[C@H]2O)cc1`, the Ki came to 6.9 nM at Carbonic anhydrase 9; 6420 nM at Carbonic anhydrase 1; 60 nM at Carbonic anhydrase 2; 111 nM on Carbonic anhydrase 12; 129 nM on Carbonic anhydrase 14. The solubility in data set [1] is greater than 20 mg/mL.

The values above are taken from ChEMBL document CHEMBL1955849, “Design and synthesis of thiourea compounds that inhibit transmembrane anchored carbonic anhydrases” (Bioorg Med Chem, 2012).
